Some test systems named below: MCF7 breast; NCI/ADR-RES ovarian; PC-3 prostate; RXF 393 renal; SK-OV-3 ovarian; A498 renal; LOX IMVI melanoma; MALME-3M melanoma; 786-0 renal; SR leukemia.
Holding throughout (experiment): NCI-60 cell line screen, 48 h

Molecules are shown by their SMILES.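 Following 48 hours of exposure in 96-well plates, responses at five concentrations were used to interpolate endpoints linearly. At the GI50, growth is halved. TGI: total growth inhibition.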 A value given as a limit tells only on which side of the number the result lay.

In the case of `N#CN=[N+]([O-])c1ccc(C(=O)O)cc1`, the TGI stood at 38.8 µM in the test with MCF7 breast; 39.9 µM with NCI/ADR-RES ovarian; 31.2 µM in the test on PC-3 prostate; 30.1 µM in the test on RXF 393 renal; 33 µM in the test on SK-OV-3 ovarian.
Turning to `CSc1nc(NC2OCC(O)C(O)C2O)c(N)c(=O)[nH]1` (stereo unspecified), the TGI in the test on A498 renal, in the test with LOX IMVI melanoma, in the test with MALME-3M melanoma, in the test on MCF7 breast, in the test on NCI/ADR-RES ovarian and in the test with RXF 393 renal was > 100 µM throughout. The TGI in the test on SK-OV-3 ovarian was > 100 µM.
Turning to `Cc1cc2c(cc1C)OC(=O)CC2`, the TGI in the test on 786-0 renal, in the test on A498 renal, with LOX IMVI melanoma, with MALME-3M melanoma, in the test with MCF7 breast and in the test on NCI/ADR-RES ovarian was > 100 µM throughout. The TGI in the test with PC-3 prostate, in the test on RXF 393 renal and with SR leukemia was > 100 µM throughout.
Consider `NCCCOc1ccc([N+](=O)[O-])cc1Cl`, for which the TGI in the test on 786-0 renal, with MALME-3M melanoma and in the test with SR leukemia was > 100 µM in each case.
In the case of `CC(=O)c1ccc2c(c1)c1c(C)c3c[n+](C)ccc3c(C)c1n2C`, the TGI was 46.5 µM in the test with A498 renal; 49.4 µM in the test on LOX IMVI melanoma; 33.7 µM with MALME-3M melanoma; > 29 µM in the test with MCF7 breast; > 100 µM in the test with NCI/ADR-RES ovarian; 42.8 µM in the test on RXF 393 renal. Moreover, the TGI in the test on SK-OV-3 ovarian is > 87 µM.
For `C/C(N=NS(=O)(=O)c1ccccc1)=C1\C=CC=CN1O`, the TGI in the test with 786-0 renal, with A498 renal, in the test on SK-OV-3 ovarian and in the test on SR leukemia was > 100 µM in each case.
On to `Cc1cc(C)n(-c2nsc3ccccc23)n1`, for which the TGI with LOX IMVI melanoma, with RXF 393 renal and in the test on SR leukemia was > 100 µM in each case.
On to `CC(=O)OCC1=C(C(=O)O)N2C(=O)C(NC(=O)CSc3ccncc3)C2SC1` (stereo unspecified), for which the TGI with 786-0 renal, with A498 renal, with LOX IMVI melanoma, in the test with MALME-3M melanoma, in the test with MCF7 breast and in the test with NCI/ADR-RES ovarian was > 100 µM throughout. For the same compound, the TGI with PC-3 prostate, in the test on RXF 393 renal, with SK-OV-3 ovarian and in the test on SR leukemia was > 100 µM each time.
On to `CCOC(=O)NC(Nc1ncccn1)(C(=O)OCC)C(F)(F)F` (stereo unspecified), for which the TGI in the test with LOX IMVI melanoma, with MCF7 breast, in the test on NCI/ADR-RES ovarian, in the test with PC-3 prostate, with RXF 393 renal and with SR leukemia was > 100 µM in each case.
As to `CCN(CC)CCNc1ccc2nnn3c4ccc(C)cc4c(=O)c1c23`, the TGI in the test on 786-0 renal stood at 18.6 µM; with A498 renal, 29.3 µM; with LOX IMVI melanoma it was 14.8 µM; with MALME-3M melanoma it was 25.7 µM; in the test on SK-OV-3 ovarian, 25.8 µM; in the test on SR leukemia, 13.1 µM.
As to `O=C1CSC(=S)N1`, the TGI in the test on 786-0 renal, in the test on LOX IMVI melanoma, in the test with MALME-3M melanoma, with MCF7 breast, in the test with NCI/ADR-RES ovarian and in the test on PC-3 prostate was > 100 µM throughout. In the test with SR leukemia, the TGI is > 100 µM.
For the compound `O=C1NC2=C(CCCC/C2=N\O)C12CCCCC2`, the TGI with A498 renal, in the test with LOX IMVI melanoma, in the test with MALME-3M melanoma, in the test on RXF 393 renal, in the test with SK-OV-3 ovarian and in the test with SR leukemia was > 100 µM each time.
On to `Fc1ccc(C2CC(c3cccc(Nc4ccncc4)c3)=NN2c2ccc(Cl)cc2)cc1` (stereo unspecified), for which the GI50 with A498 renal was 1150 nM; in the test on LOX IMVI melanoma, 1690 nM; in the test on MALME-3M melanoma it was 1590 nM; in the test on MCF7 breast, 1750 nM; in the test on NCI/ADR-RES ovarian, 1820 nM; with PC-3 prostate, 1630 nM. Also, the results for the GI50 in the test on RXF 393 renal, in the test on SK-OV-3 ovarian and in the test on SR leukemia were 1630 nM, 1980 nM and 1790 nM, respectively. Also, the TGI in the test with A498 renal was 4.62 µM; in the test on LOX IMVI melanoma it was 3.06 µM; in the test with MALME-3M melanoma, 3.1 µM; in the test on MCF7 breast, 3.5 µM; in the test with NCI/ADR-RES ovarian, 3.48 µM; in the test with PC-3 prostate, 3.19 µM. For the same compound, the TGI with RXF 393 renal came to 3 µM; in the test with SK-OV-3 ovarian, 4.53 µM; with SR leukemia it was 4.23 µM.
For the compound `Cc1ccc2c(c1)C(=O)N(N(C)C)CC(=O)N2`, the TGI in the test with A498 renal, in the test with LOX IMVI melanoma, in the test on MALME-3M melanoma, in the test on SK-OV-3 ovarian and in the test with SR leukemia was > 100 µM each time.

The record behind these values is PubChem BioAssay (NCI).
